# Measured values from patent US7012067B2, “Blood lipid ameliorant composition” (Sankyo Company, Limited, priority 2000, dated 2006).
# Key:
# Format in all cases: in vivo
# blood lipid peroxides = test: Blood lipid peroxide levels in dogs (Yagi's methods); details: beagle dogs, oral once daily, relative to pre-dosing level (100), mean of 5, simvastatin 1 mg/kg
# Source text: (§1) Beagle dogs aged 5 months were purchased from Covance Research Products Inc. and used after 1 month of quarantine and acclimatisaton breeding.
# (§2) The required amounts of simvastatin or each component of the combination drug calculated from the body weight of each dog were weighed and filled in a gelatin capsule (½ ounce) purchased from TORPAC Inc. Capsules filled with simvastatin were stocked in a refrigerator and those filled with combination drugs stocked at room temperature until use.
# (§3) The combination drugs were filled in identical gelatin capsules.
# (§4) Simvastatin or combination drug capsules were forcibly orally administered to each of the test animals once daily between 9:00 and 12:30. Animals were fasted for 2 or 3 hr prior to administration of the capsules.
# (§5) The administration period was 11 successive days.
# (§6) Blood (10 mL) was collected from the superficial radial vein 2 or 1 weeks prior to administration and 4, 8, and 12 days after administration was started. Animals were fasted for approximately 18 hr prior to blood collection. Collected blood was placed in a test tube and left at room temperature for 0.5-1 hr, before being centrifuged (3,000 rpm for 10 min). The obtained serum was used for assays of blood levels of lipid peroxides, total cholesterol, triglycerides, free fatty acids, GOT, and CPK according to Yagi's methods, CEH-COD-POD methods, GK-GPO-POD methods, ACS-ACOD methods, UV-rate methods, and UV-rate methods, respectively. (For ACS-ACOD (Acyl-CoA synthetase-Acyl-CoA oxidase peroxidase) methods, CEH-COD-POD (Cholesterol ester hydrolase-Cholesteroloxidase-Peroxidase) methods, Yagis methods and GK-GPO-POD (Glycerokinase-Glycerolphosphateoxidase-Peroxidase)methods, see: Kanai's Manual of Clinical Laboratory Medicine; 31st Edition (September 1998), Kanehara & Co., Ltd.)
# (§7) All these levels were determined using a fluorometer (Hitachi, Ltd., F3000), a full automatic analyzer (Monarch, Instrumentation Laboratory), and an automatic analyzer (7170, Hitachi, Ltd.).
# (§8) All these values in dogs treated with one of the drugs described above were converted to their relative ratios against their averaged pre-dosing levels (100) determined 2 and 1 weeks prior to drug administration. The averaged value in each group was obtained from 5 animals per group.
# blood free fatty acids = test: Blood free fatty acid levels in dogs (ACS-ACOD methods); details: beagle dogs, oral once daily, relative to pre-dosing level (100), mean of 5, simvastatin 1 mg/kg
# Source text: as §1, §2, §3, §4, §5, §6, §7, §8
# blood total cholesterol = test: Blood total cholesterol levels in dogs (CEH-COD-POD methods); details: beagle dogs, oral once daily, relative to pre-dosing level (100), mean of 5, simvastatin 1 mg/kg, taurine 1000 mg/kg
# Source text: as §1, §2, §3, §4, §5, §6, §7, §8
# blood triglycerides = test: Blood triglyceride levels in dogs (GK-GPO-POD methods); details: beagle dogs, oral once daily, relative to pre-dosing level (100), mean of 5
# Source text: as §1, §2, §3, §4, §5, §6, §7, §8
# CPK = test: Serum CPK levels in dogs (UV-rate methods); details: beagle dogs, oral once daily, relative to pre-dosing level (100), mean of 5, simvastatin 1 mg/kg, ascorbic acid 500 mg/kg
# Source text: as §1, §2, §3, §4, §5
# (§9) Blood (10 mL) was collected from the superficial radial vein 2 or 1 weeks prior to administration and 4, 8, and 12 days after administration was started. Animals were fasted for approximately 18 hr prior to blood collection. Collected blood was placed in a test tube and left at room temperature for 0.5-1 hr, before being centrifuged (3,000 rpm for 10 min). The obtained serum was used for assays of blood levels of lipid peroxides, total cholesterol, triglycerides, free fatty acids, GOT, and CPK according to Yagi's methods, CEH-COD-POD methods, GK-GPO-POD methods, ACS-ACOD methods, UV-rate methods, and UV-rate methods, respectively.
# as §8
# GOT = test: Serum GOT levels in dogs (UV-rate methods); details: beagle dogs, oral once daily, relative to pre-dosing level (100), mean of 5, simvastatin 1 mg/kg, Tocoph 300 mg/kg
# Source text: as §1, §2, §3, §4, §5, §9, §8
# [1] = simvastatin 1 mg/kg (dose cell of simvastatin alone empty), taurine 1000 mg/kg
# [2] = simvastatin 1 mg/kg, Tocoph 300 mg/kg
# [3] = simvastatin 1 mg/kg, pantethine 300 mg/kg
Structure (SMILES),"Blood Lipid Peroxide Levels after administration, 4 days (blood lipid peroxides; RFVb 200 mg/kg)","Blood Lipid Peroxide Levels after administration, 4 days (blood lipid peroxides; ascorbic acid 500 mg/kg)","Blood Lipid Peroxide Levels after administration, 4 days (blood lipid peroxides; taurine 1000 mg/kg)","Blood Lipid Peroxide Levels after administration, 8 days (blood lipid peroxides; RFVb 200 mg/kg)","Blood Lipid Peroxide Levels after administration, 8 days (blood lipid peroxides; ascorbic acid 500 mg/kg)","Blood Lipid Peroxide Levels after administration, 8 days (blood lipid peroxides; taurine 1000 mg/kg)","Blood Lipid Peroxide Levels after administration, 12 days (blood lipid peroxides; RFVb 200 mg/kg)","Blood Lipid Peroxide Levels after administration, 12 days (blood lipid peroxides; ascorbic acid 500 mg/kg)","Blood Lipid Peroxide Levels after administration, 12 days (blood lipid peroxides; taurine 1000 mg/kg)","Blood FFA Levels after administration, 4 days (blood free fatty acids; RFVb 200 mg/kg)","Blood FFA Levels after administration, 4 days (blood free fatty acids; Tocoph 300 mg/kg)","Blood FFA Levels after administration, 4 days (blood free fatty acids; ascorbic acid 500 mg/kg)","Blood FFA Levels after administration, 8 days (blood free fatty acids; RFVb 200 mg/kg)","Blood FFA Levels after administration, 8 days (blood free fatty acids; Tocoph 300 mg/kg)","Blood FFA Levels after administration, 8 days (blood free fatty acids; ascorbic acid 500 mg/kg)","Blood FFA Levels after administration, 12 days (blood free fatty acids; RFVb 200 mg/kg)","Blood FFA Levels after administration, 12 days (blood free fatty acids; Tocoph 300 mg/kg)","Blood FFA Levels after administration, 12 days (blood free fatty acids; ascorbic acid 500 mg/kg)","Blood Total Cholesterol Levels after administration, 4 days (blood total cholesterol)","Blood Total Cholesterol Levels after administration, 8 days (blood total cholesterol)",other results
"CCC(C)(C)C(=O)O[C@H]1C[C@@H](C)C=C2C=C[C@H](C)[C@H](CC[C@@H]3C[C@@H](O)CC(=O)O3)[C@H]21 [Simvastatin, (+)-(1S,3R,7S,8S,8aR)-1,2,3,7,8,8a-hexahydro-3,7-dimethyl-8-[2-[(2R4R )-tetrahydro-4-hydroxy-6-oxo-2H-pyran-2-yl]ethyl]-1-naphthyl 2,2-dimethylbutanoate]",96.2,96.2,96.2,86.4,86.4,86.4,91.0,91.0,91.0,93.8,93.8,93.8,99.3,99.3,99.3,97.0,97.0,97.0,102.1,93.2,"Blood Lipid Peroxide Levels after administration, 4 days (blood lipid peroxides; pantethine 300 mg/kg): 96.2; Blood Lipid Peroxide Levels after administration, 8 days (blood lipid peroxides; pantethine 300 mg/kg): 86.4; Blood Lipid Peroxide Levels after administration, 12 days (blood lipid peroxides; pantethine 300 mg/kg): 91.0; Blood Total Cholesterol Levels after administration, 12 days (blood total cholesterol): 86.6; Blood Triglyceride Levels after administration, 4 days (blood triglycerides; [1]): 97.6; Blood Triglyceride Levels after administration, 4 days (blood triglycerides; [2]): 96.2; Blood Triglyceride Levels after administration, 4 days (blood triglycerides; [3]): 97.6; Blood Triglyceride Levels after administration, 8 days (blood triglycerides; [1]): 88.9; Blood Triglyceride Levels after administration, 8 days (blood triglycerides; [2]): 86.4; Blood Triglyceride Levels after administration, 8 days (blood triglycerides; [3]): 88.9; Blood Triglyceride Levels after administration, 12 days (blood triglycerides; [1]): 89.3; Blood Triglyceride Levels after administration, 12 days (blood triglycerides; [2]): 91.0; Blood Triglyceride Levels after administration, 12 days (blood triglycerides; [3]): 89.3; CPK Levels after administration, 4 days (CPK): 94.5; CPK Levels after administration, 8 days (CPK): 99.4; CPK Levels after administration, 12 days (CPK): 91.0; GOT Levels after administration, 4 days (GOT): 98.1; GOT Levels after administration, 8 days (GOT): 93.9; GOT Levels after administration, 12 days (GOT): 100.4"
"O=C1O[C@H]([C@@H](O)CO)C(O)=C1O [Ascorbic acid, ascorbic acid]",–,87.6,–,–,89.9,–,–,94.4,–,–,–,87.4,–,–,109.6,–,–,97.8,–,–,"CPK Levels after administration, 4 days (CPK): 98.3; CPK Levels after administration, 8 days (CPK): 95.1; CPK Levels after administration, 12 days (CPK): 91.5"
"NCCS(=O)(=O)O [Taurine, 2-aminoethanesulfonic acid]",–,–,95.8,–,–,93.8,–,–,87.5,–,–,–,–,–,–,–,–,–,95.9,90.2,"Blood Total Cholesterol Levels after administration, 12 days (blood total cholesterol): 87.2; Blood Triglyceride Levels after administration, 4 days (blood triglycerides; [1]): 98.6; Blood Triglyceride Levels after administration, 8 days (blood triglycerides; [1]): 95.8; Blood Triglyceride Levels after administration, 12 days (blood triglycerides; [1]): 80.8"
"CC(=O)Oc1c(C)c(C)c2c(c1C)CC[C@@](C)(CCC[C@H](C)CCC[C@H](C)CCCC(C)C)O2 [Tocoph, d-α-tocopherol acetate]",–,–,–,–,–,–,–,–,–,–,115.4,–,–,103.1,–,–,86.2,–,–,–,"Blood Triglyceride Levels after administration, 4 days (blood triglycerides; [2]): 106.3; Blood Triglyceride Levels after administration, 8 days (blood triglycerides; [2]): 119.0; Blood Triglyceride Levels after administration, 12 days (blood triglycerides; [2]): 75.9; GOT Levels after administration, 4 days (GOT): 114.9; GOT Levels after administration, 8 days (GOT): 139.7; GOT Levels after administration, 12 days (GOT): 109.1"
"CCCC(=O)OC[C@@H](OC(=O)CCC)[C@@H](OC(=O)CCC)[C@H](Cn1c2nc(=O)[nH]c(=O)c-2nc2cc(C)c(C)cc21)OC(=O)CCC [RFVb, riboflavin butyrate]",88.9,–,–,101.0,–,–,80.8,–,–,97.6,–,–,101.2,–,–,92.9,–,–,–,–,–
